Drawing on PubChem BioAssay AID256 (DTP/NCI, 2004), this text covers T/C for 17 molecules.

The assay deals with CD2F1 mice, L1210 leukemia ip, survival T/C. Kind of assay: NCI In Vivo Anticancer Drug Screen. Data for tumor model L1210 Leukemia (intraperitoneal) in CD2F1 (CDF1) mice. The conditions noted are these: higher = longer survival. Summed up: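 Tumor-bearing mice (transplanted tumor) were split into treated and vehicle control groups, and the measured endpoint of each treated group was divided by that of its vehicle controls.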

The mark [1] stands for this setting: endpoint: mean survival time, dose: 100.0 mg/kg/injection, schedule: Q04DX003 (ip), vehicle: saline.
Setting [2] is: endpoint: mean survival time, dose: 200.0 mg/kg/injection, schedule: Q04DX003 (ip), vehicle: saline.
The mark [3] stands for this setting: endpoint: mean survival time, dose: 400.0 mg/kg/injection, schedule: Q04DX003 (ip), vehicle: saline.
Setting [4] is: endpoint: mean survival time, dose: 75.0 mg/kg/injection, schedule: Q01DX001 (ip), vehicle: saline.
The mark [5] stands for this setting: endpoint: mean survival time, dose: 150.0 mg/kg/injection, schedule: Q01DX001 (ip), vehicle: saline.
The mark [6] stands for this setting: endpoint: mean survival time, dose: 50.0 mg/kg/injection, schedule: Q01DX009 (ip), vehicle: saline with Tween-80.
The mark [7] stands for this setting: endpoint: mean survival time, dose: 100.0 mg/kg/injection, schedule: Q01DX009 (ip), vehicle: saline with Tween-80.
Setting [8] is: endpoint: mean survival time, dose: 200.0 mg/kg/injection, schedule: Q01DX009 (ip), vehicle: saline.
Setting [9] is: endpoint: mean survival time, dose: 400.0 mg/kg/injection, schedule: Q01DX009 (ip), vehicle: saline with Tween-80.
Where [10] appears, read: endpoint: mean survival time, dose: 400.0 mg/kg/injection, schedule: Q01DX009 (ip), vehicle: saline.
The mark [11] stands for this setting: endpoint: mean survival time, dose: 100.0 mg/kg/injection, schedule: Q01DX009 (ip), vehicle: Klucel (hydroxypropylcellulose) (HPC).
Where [12] appears, read: endpoint: mean survival time, dose: 200.0 mg/kg/injection, schedule: Q01DX009 (ip), vehicle: Klucel (hydroxypropylcellulose) (HPC).

Where “and” joins values, the source holds several entries; their conditions need not be identical. Identical values can stand only once. Inconclusive results and toxic doses are left out.

Turning to `C1CN2CCOB(O1)OCC2`, the T/C is, setting by setting: under setting [1], 94 % of control; under setting [2], 98 % of control; under setting [3], 93 % of control.

As to `CC12C3C4C5C3C1(C)C(C42)C51OCCO1` (stereo not given), the T/C (endpoint: mean survival time, dose: 12.5 mg/kg/injection, schedule: Q04DX002 (ip), vehicle: saline with Tween-80) was 100 % of control and the T/C (endpoint: mean survival time, dose: 25.0 mg/kg/injection, schedule: Q04DX002 (ip), vehicle: saline with Tween-80) was 100 % of control.

For the molecule `CO/N=C(/c1ccccc1)c1cc[n+](C)cc1`, the T/C was 100 % of control (endpoint: mean survival time, dose: 37.5 mg/kg/injection, schedule: Q04DX003 (ip), vehicle: saline); 95 % of control under setting [4]; 96 % of control (endpoint: mean survival time, dose: 75.0 mg/kg/injection, schedule: Q04DX003 (ip), vehicle: saline); 100 % of control under setting [5].

Take `CCOC(=O)c1c[nH]c2oc(/C=N/N3CC(CN4CCOCC4)OC3=O)cc2c1=O` (stereo not given): the T/C reads like this: (endpoint: mean survival time, dose: 12.5 mg/kg/injection, schedule: Q01DX009 (ip), vehicle: saline) 97 % of control and 109 % of control; (endpoint: mean survival time, dose: 25.0 mg/kg/injection, schedule: Q01DX009 (ip), vehicle: other) 102 % of control; (endpoint: mean survival time, dose: 25.0 mg/kg/injection, schedule: Q01DX009 (ip), vehicle: saline with Tween-80) 107 % of control; (endpoint: mean survival time, dose: 25.0 mg/kg/injection, schedule: Q01DX009 (ip), vehicle: saline) 97 % of control and 103 % of control; (endpoint: mean survival time, dose: 50.0 mg/kg/injection, schedule: Q01DX009 (ip), vehicle: other) 110 % of control; under setting [6], 109 % of control. In addition, the T/C was 114 % of control and 101 % of control (endpoint: mean survival time, dose: 50.0 mg/kg/injection, schedule: Q01DX009 (ip), vehicle: saline); 124 % of control under setting [7]; 160 % of control (endpoint: mean survival time, dose: 200.0 mg/kg/injection, schedule: Q01DX009 (ip), vehicle: other); 158 % of control under setting [8]; 96 % of control (endpoint: mean survival time, dose: 400.0 mg/kg/injection, schedule: Q01DX009 (ip), vehicle: other); 152 % of control under setting [9]. In addition, the T/C runs as follows: under setting [10], 124 % of control and 100 % of control; (endpoint: median survival time, dose: 50.0 mg/kg/injection, schedule: Q01DX005 (ip), vehicle: other) 112 % of control; (endpoint: median survival time, dose: 50.0 mg/kg/injection, schedule: Q01DX009 (ip), vehicle: acid diluted with saline) 115 % of control and 101 % of control; (endpoint: median survival time, dose: 100.0 mg/kg/injection, schedule: Q01DX005 (ip), vehicle: other) 118 % of control; (endpoint: median survival time, dose: 100.0 mg/kg/injection, schedule: Q01DX009 (ip), vehicle: acid diluted with saline) 124 % of control; (endpoint: median survival time, dose: 400.0 mg/kg/injection, schedule: Q01DX005 (ip), vehicle: other) 190 % of control. The T/C (endpoint: median survival time, dose: 400.0 mg/kg/injection, schedule: Q01DX009 (ip), vehicle: acid diluted with saline) is 90 % of control.

Turning to `C=C(NC(=O)CN)C(=O)O`, the T/C (endpoint: mean survival time, dose: 100.0 mg/kg/injection, schedule: Q04DX002 (ip), vehicle: saline with Tween-80) was 100 % of control; the T/C (endpoint: mean survival time, dose: 200.0 mg/kg/injection, schedule: Q04DX002 (ip), vehicle: saline with Tween-80) was 95 % of control; the T/C (endpoint: mean survival time, dose: 400.0 mg/kg/injection, schedule: Q04DX002 (ip), vehicle: saline with Tween-80) is 95 % of control.

As to `O=P(NC12CC3CC(CC(C3)C1)C2)(N1CC1)N1CC1`, the T/C (endpoint: mean survival time, dose: 4.8 mg/kg/injection, schedule: Q04DX003 (ip), vehicle: Klucel (hydroxypropylcellulose) (HPC)) was 120 % of control; the T/C (endpoint: mean survival time, dose: 9.6 mg/kg/injection, schedule: Q04DX003 (ip), vehicle: Klucel (hydroxypropylcellulose) (HPC)) is 120 % of control; the T/C (endpoint: mean survival time, dose: 30.0 mg/kg/injection, schedule: Q04DX003 (ip), vehicle: Klucel (hydroxypropylcellulose) (HPC)) is 162 % of control.

As to `Cc1cccc(=N)n1CCC(=O)O`, the T/C (endpoint: mean survival time, dose: 100.0 mg/kg/injection, schedule: Q01DX009 (ip), vehicle: saline) is 95 % of control; the T/C under setting [1] is 112 % of control; the T/C under setting [8] is 98 % of control; the T/C under setting [2] was 94 % of control; the T/C under setting [10] was 95 % of control; the T/C under setting [3] was 96 % of control.

For `O=C(O)CSCc1ccc(Cl)cc1Cl`, the T/C was 98 % of control (endpoint: mean survival time, dose: 50.0 mg/kg/injection, schedule: Q01DX009 (ip), vehicle: Klucel (hydroxypropylcellulose) (HPC)); 87 % of control under setting [11]; 93 % of control under setting [12].

Turning to `CCOC(=O)C(C)(C)C(OP(=O)(OCC)OCC)=C(C)C`, the T/C by setting is: under setting [4], 103 % of control; under setting [5], 97 % of control; (endpoint: mean survival time, dose: 300.0 mg/kg/injection, schedule: Q01DX001 (ip), vehicle: saline) 100 % of control.

Regarding `Cc1ccc(C(C)(c2ccccc2)C(C)(CC=O)CC(=O)O)cc1` (stereo not given), the T/C is 95 % of control under setting [7]; 94 % of control (endpoint: mean survival time, dose: 200.0 mg/kg/injection, schedule: Q01DX009 (ip), vehicle: saline with Tween-80); 97 % of control under setting [9].

Turning to `CC(C)c1cccc(O)c(=O)c1`, the T/C is, setting by setting: under setting [6], 102 % of control; under setting [7], 100 % of control.

For `Nc1nc(N)c2c(ccc3c2ccn3Cc2cccc([N+](=O)[O-])c2)n1`, the T/C is 104 % of control (endpoint: median survival time, dose: 0.75 mg/kg/injection, schedule: Q01DX009 (ip), vehicle: saline with Tween-80); 111 % of control (endpoint: median survival time, dose: 1.5 mg/kg/injection, schedule: Q01DX009 (ip), vehicle: saline with Tween-80); 110 % of control (endpoint: median survival time, dose: 1.56 mg/kg/injection, schedule: Q01DX009 (ip), vehicle: saline with Tween-80); 117 % of control (endpoint: median survival time, dose: 3.0 mg/kg/injection, schedule: Q01DX009 (ip), vehicle: saline with Tween-80); 118 % of control (endpoint: median survival time, dose: 3.12 mg/kg/injection, schedule: Q01DX009 (ip), vehicle: saline with Tween-80); 90 % of control and 98 % of control (endpoint: median survival time, dose: 12.5 mg/kg/injection, schedule: Q01DX009 (ip), vehicle: saline with Tween-80). Moreover, the T/C (endpoint: median survival time, dose: 25.0 mg/kg/injection, schedule: Q01DX009 (ip), vehicle: saline with Tween-80) was 102 % of control and 103 % of control.

With `CCCCCCCCC/C=C(\CCCCCCCCCC)c1ccccc1`, the T/C (endpoint: mean survival time, dose: 100.0 mg/kg/injection, schedule: Q01DX001 (ip), vehicle: saline) was 94 % of control; the T/C (endpoint: mean survival time, dose: 200.0 mg/kg/injection, schedule: Q01DX001 (ip), vehicle: saline) was 94 % of control; the T/C (endpoint: mean survival time, dose: 400.0 mg/kg/injection, schedule: Q01DX001 (ip), vehicle: saline) is 100 % of control.

For `O=C1CC2(C(=O)N1CN1CCOCC1)c1ccccc1-c1ccccc12`, the T/C (endpoint: median survival time, dose: 25.0 mg/kg/injection, schedule: Q01DX009 (ip), vehicle: Klucel (hydroxypropylcellulose) (HPC)) was 103 % of control; the T/C (endpoint: median survival time, dose: 50.0 mg/kg/injection, schedule: Q01DX009 (ip), vehicle: Klucel (hydroxypropylcellulose) (HPC)) was 102 % of control; the T/C (endpoint: median survival time, dose: 100.0 mg/kg/injection, schedule: Q01DX009 (ip), vehicle: Klucel (hydroxypropylcellulose) (HPC)) is 96 % of control; the T/C (endpoint: median survival time, dose: 200.0 mg/kg/injection, schedule: Q01DX009 (ip), vehicle: Klucel (hydroxypropylcellulose) (HPC)) was 100 % of control; the T/C (endpoint: median survival time, dose: 400.0 mg/kg/injection, schedule: Q01DX009 (ip), vehicle: Klucel (hydroxypropylcellulose) (HPC)) is 107 % of control.

On to `C1CC[N-]CC1.C1CC[N-]CC1.[Cl][Pt+2]([Cl])([Cl])[Cl]`, for which the T/C by setting is: (endpoint: mean survival time, dose: 100.0 mg/kg/injection, schedule: Q04DX003 (ip), vehicle: saline with Tween-80) 97 % of control; (endpoint: mean survival time, dose: 200.0 mg/kg/injection, schedule: Q04DX003 (ip), vehicle: saline with Tween-80) 92 % of control; (endpoint: mean survival time, dose: 400.0 mg/kg/injection, schedule: Q04DX003 (ip), vehicle: saline with Tween-80) 93 % of control.

In the case of `Cc1ccc(S(=O)(=O)Nc2ccc([N+](=O)[O-])cc2O)cc1`, the T/C runs as follows: (endpoint: mean survival time, dose: 100.0 mg/kg/injection, schedule: Q04DX003 (ip), vehicle: Klucel (hydroxypropylcellulose) (HPC)) 94 % of control; (endpoint: mean survival time, dose: 200.0 mg/kg/injection, schedule: Q04DX003 (ip), vehicle: Klucel (hydroxypropylcellulose) (HPC)) 94 % of control; (endpoint: mean survival time, dose: 400.0 mg/kg/injection, schedule: Q04DX003 (ip), vehicle: Klucel (hydroxypropylcellulose) (HPC)) 94 % of control.

In the case of `Cc1ccc(NC(=O)Nc2ccccc2C(N)=O)c([N+](=O)[O-])c1`, the T/C by setting is: under setting [11], 95 % of control; under setting [12], 89 % of control; (endpoint: mean survival time, dose: 400.0 mg/kg/injection, schedule: Q01DX009 (ip), vehicle: Klucel (hydroxypropylcellulose) (HPC)) 95 % of control.
